# Calls of active or inactive are those of the source.
# Experiments:
# [1] = biological target: T1, Low molecular weight phosphotyrosine protein phosphatase (Homo sapiens, UniProt P24666); format: functional; settings: read-out: IC50_Mean
# T1 sequence (P24666 whole entry): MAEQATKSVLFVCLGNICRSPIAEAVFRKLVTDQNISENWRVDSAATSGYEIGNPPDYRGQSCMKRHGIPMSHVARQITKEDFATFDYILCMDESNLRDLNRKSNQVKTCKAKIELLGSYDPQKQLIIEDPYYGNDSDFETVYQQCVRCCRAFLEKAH
# [2] = reduced cellular PGC1a acetyl-lysine signal – cell-based, cherry-picked samples, dose response (AID 720514); format: functional;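 note: potency may reflect raised or lowered acetylation signal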
# [3] = biological target: T1, Low molecular weight phosphotyrosine protein phosphatase; format: functional; settings: read-out: IC50_Mean; remark: listed apart in the source
# [4] = biological target: T2, Small ubiquitin-related modifier 1 (Homo sapiens, UniProt P63165); test: SUMO1 protein-protein binding blockers, potency – biochemical, FRET, dose response (AID 624383); format: functional; settings: read-out: IC50_Mean
# T2 sequence (P63165 whole entry): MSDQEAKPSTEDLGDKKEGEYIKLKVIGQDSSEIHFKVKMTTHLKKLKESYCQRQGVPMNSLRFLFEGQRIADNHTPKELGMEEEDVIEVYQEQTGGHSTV
# [5] = biological target: T2, Small ubiquitin-related modifier 1; test: SUMO1 protein interaction blockers, potency – biochemical, fluorescence polarization, uHTS hits, dose response (AID 624382); format: functional; settings: read-out: IC50_Mean
# Troponin, cardiac muscle = Troponin, cardiac muscle (Homo sapiens, UniProt P19429+P45379+P63316); test: compounds desensitizing RTF to calcium – biochemical, fluorescence, cardiac regulated thin filaments, triplicate IC50, dose response (AID 504742); format: protein-complex assay
# [6] = biological target: T3, Long-chain-fatty-acid--AMP ligase FadD28 (Mycobacterium tuberculosis, UniProt P9WQ59); test: Fluorescence polarization aasay to screen for inhibitors that compete for the binding of FadD28 to a bisubstrate Measured in Biochemical System Using Plate Reader - 2147-01_Inhibitor_Dose_CherryPick_Activity.; format: functional, Mycobacterium tuberculosis H37Rv
# T3 sequence (P9WQ59 whole entry): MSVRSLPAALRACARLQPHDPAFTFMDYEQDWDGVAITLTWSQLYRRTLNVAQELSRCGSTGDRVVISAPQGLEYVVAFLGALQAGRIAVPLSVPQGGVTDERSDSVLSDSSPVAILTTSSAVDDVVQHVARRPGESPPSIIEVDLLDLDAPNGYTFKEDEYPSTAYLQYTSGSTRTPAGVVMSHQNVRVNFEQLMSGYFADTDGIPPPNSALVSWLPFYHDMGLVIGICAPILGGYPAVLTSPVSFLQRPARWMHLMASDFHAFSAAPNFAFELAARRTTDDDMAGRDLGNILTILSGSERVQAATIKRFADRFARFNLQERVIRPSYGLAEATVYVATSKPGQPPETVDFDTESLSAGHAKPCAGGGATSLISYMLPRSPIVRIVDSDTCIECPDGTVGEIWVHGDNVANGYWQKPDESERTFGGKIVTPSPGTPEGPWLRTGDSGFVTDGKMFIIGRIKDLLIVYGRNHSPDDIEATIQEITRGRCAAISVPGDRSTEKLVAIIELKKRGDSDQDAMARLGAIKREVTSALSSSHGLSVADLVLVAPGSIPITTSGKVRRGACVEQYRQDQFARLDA
# [7] = biological target: T4, Rac GTPase-activating protein 1 (Homo sapiens, UniProt Q9H0H5); test: blockers of MgcRacGAP-driven Rac1 GTP hydrolysis – biochemical, ADP Hunter fluorescence, primary and confirmatory, confirmation (AID 624330); format: functional
# T4 sequence (Q9H0H5 whole entry): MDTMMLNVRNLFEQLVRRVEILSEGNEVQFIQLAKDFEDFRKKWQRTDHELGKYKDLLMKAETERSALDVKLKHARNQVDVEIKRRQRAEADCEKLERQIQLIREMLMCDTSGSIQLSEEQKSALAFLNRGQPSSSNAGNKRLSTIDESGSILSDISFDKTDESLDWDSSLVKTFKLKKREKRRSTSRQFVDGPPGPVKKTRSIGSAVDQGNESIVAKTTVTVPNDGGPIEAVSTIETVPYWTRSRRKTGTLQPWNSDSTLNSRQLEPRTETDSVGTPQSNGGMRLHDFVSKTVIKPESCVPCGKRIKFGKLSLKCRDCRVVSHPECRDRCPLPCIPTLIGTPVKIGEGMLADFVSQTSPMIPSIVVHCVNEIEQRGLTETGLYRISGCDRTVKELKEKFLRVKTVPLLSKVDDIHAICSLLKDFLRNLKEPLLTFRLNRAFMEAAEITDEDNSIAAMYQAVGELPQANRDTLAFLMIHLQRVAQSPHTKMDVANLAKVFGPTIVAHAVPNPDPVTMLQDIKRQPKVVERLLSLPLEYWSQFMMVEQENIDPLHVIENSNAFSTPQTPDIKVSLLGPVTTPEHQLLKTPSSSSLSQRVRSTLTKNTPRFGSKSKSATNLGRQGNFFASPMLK
# cells = format: functional
# [8] = general mammalian cell viability loss – inhibitor set, cherry-pick, set 2, cytotoxicity control for miR-122 modulator project, dose response (AID 720697); format: functional, cell-based
# [9] = biological target: T5, Corticotropin-releasing factor receptor 2/Corticotropin-releasing factor-binding protein (Homo sapiens, UniProt P24387+Q13324); test: Dose Response confirmation of uHTS hits for small molecule antagonists of the CRF-binding protein and CRF-R2 receptor complex.; format: functional; settings: read-out: IC50_Mean
# T5 sequence (Q13324 whole entry): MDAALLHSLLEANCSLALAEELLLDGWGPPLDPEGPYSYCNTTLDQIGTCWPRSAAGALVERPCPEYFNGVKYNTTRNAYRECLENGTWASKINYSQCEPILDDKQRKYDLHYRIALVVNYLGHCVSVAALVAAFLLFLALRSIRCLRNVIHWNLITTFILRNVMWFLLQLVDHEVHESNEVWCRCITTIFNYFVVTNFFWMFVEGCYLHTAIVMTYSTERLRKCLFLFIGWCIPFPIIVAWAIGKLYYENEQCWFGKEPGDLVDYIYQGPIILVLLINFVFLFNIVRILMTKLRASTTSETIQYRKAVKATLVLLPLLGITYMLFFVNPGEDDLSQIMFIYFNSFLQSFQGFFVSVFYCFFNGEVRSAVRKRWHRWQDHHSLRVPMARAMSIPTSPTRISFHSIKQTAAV
# T5 sequence (P24387 whole entry): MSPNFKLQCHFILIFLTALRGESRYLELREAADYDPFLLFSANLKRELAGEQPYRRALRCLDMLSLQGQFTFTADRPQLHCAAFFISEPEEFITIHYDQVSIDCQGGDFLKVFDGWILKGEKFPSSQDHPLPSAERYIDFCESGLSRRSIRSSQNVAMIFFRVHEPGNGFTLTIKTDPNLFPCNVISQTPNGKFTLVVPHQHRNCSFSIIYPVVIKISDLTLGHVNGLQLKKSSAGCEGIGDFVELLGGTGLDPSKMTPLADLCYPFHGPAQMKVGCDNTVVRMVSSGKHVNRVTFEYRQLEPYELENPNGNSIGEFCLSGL
# [10] = blockers of CRF-binding protein–CRF-R2 complex – cell-based, uHTS hits, 384-well, dose response (AID 651639); format: functional, Homo sapiens; settings: read-out: IC50_Mean
# [11] = biological target: T5, Corticotropin-releasing factor receptor 2/Corticotropin-releasing factor-binding protein; test: activators of CRF receptor 2 with binding protein – uHTS hits, confirmation (AID 602473); format: functional; settings: read-out: EC50_Mean
# [12] = NIH-3T3 fibroblast cytotoxicity, dose response, cytotoxicity control, cell-based, fluorescence, Alamar Blue, secondary assay (AID 2327); format: functional;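 note: NIH-3T3 mouse fibroblasts cultured with fluconazole at 8 µg/mL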
# [13] = biological target: ATP-dependent molecular chaperone HSP82 (Candida albicans (strain WO-1) (Yeast), UniProt C4YTQ8); test: steroid-induced GRE reporter decrease in yeast – S. cerevisiae, luminescence, Hsp90 inhibitor project, dose response (AID 2400); format: functional, cell-based;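 note: beta-galactosidase luminescence from glucocorticoid response element reporter as proxy for Hsp90 function; inhibitor potency where signal loss means Hsp90 inhibition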
# ATP-dependent molecular chaperone HSP82, sequence (C4YTQ8 whole entry): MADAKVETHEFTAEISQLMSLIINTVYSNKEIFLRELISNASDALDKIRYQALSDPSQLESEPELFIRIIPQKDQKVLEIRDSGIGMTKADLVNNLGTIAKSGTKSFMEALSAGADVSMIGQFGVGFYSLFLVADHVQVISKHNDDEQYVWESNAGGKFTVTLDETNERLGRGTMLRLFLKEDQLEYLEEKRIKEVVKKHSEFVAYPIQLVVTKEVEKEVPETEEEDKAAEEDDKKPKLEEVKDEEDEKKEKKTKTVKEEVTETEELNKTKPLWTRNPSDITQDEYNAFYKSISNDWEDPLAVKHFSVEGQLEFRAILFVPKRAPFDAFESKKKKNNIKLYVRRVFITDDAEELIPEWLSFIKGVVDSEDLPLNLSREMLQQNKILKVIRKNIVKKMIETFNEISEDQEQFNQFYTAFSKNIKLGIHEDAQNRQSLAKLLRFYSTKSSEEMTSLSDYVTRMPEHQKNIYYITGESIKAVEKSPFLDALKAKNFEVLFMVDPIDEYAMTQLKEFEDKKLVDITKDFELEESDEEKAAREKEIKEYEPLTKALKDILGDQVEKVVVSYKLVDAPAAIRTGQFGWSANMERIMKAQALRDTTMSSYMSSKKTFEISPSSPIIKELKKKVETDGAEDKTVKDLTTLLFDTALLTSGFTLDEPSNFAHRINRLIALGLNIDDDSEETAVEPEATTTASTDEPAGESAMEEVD
# [14] = fluconazole-exposed Candida albicans growth modulators – fluorescence, retest, confirmation (AID 2467); format: functional, cell-based
# [15] = biological target: T6, Serine/threonine-protein phosphatase (Candida dubliniensis (strain CD36 / CBS 7987 / NCPF 3949 / NRRLY-17841) (Yeast), UniProt B9W6M3); test: blockers of CaCl2-induced CDRE-lacZ signaling – S. cerevisiae, luminescence, secondary, dose response (AID 2388); format: functional, cell-based;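 note: yeast reporter cells carrying a calcineurin-responsive lacZ construct stimulated with calcium chloride; luminescent beta-galactosidase reporter signal in whole cells rather than isolated phosphatase activity; potency for inhibition where a drop in reporter signal means calcineurin blockade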
# T6 sequence (B9W6M3 whole entry): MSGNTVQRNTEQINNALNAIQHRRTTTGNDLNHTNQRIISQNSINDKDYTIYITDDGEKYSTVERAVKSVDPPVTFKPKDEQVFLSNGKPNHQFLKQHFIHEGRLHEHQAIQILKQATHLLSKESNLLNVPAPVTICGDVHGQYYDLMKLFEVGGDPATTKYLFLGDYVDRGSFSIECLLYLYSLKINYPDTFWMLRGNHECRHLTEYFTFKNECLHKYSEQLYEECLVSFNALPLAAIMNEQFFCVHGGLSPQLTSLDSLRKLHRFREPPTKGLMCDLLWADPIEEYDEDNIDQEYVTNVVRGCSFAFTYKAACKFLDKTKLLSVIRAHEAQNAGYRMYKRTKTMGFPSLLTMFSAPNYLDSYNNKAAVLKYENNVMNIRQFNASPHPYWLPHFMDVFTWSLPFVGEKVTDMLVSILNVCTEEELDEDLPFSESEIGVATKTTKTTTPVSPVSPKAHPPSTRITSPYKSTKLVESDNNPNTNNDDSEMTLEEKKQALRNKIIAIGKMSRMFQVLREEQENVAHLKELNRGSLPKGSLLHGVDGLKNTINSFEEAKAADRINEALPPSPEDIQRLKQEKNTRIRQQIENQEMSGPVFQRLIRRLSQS
# [16] = biological target: Ras and Rab interactor 1/Tyrosine-protein kinase ABL1 (Homo sapiens, UniProt P00519+Q13671); format: functional;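 note: biochemical TR-FRET dose-response test measuring inhibition of binding between Rin1 and Abl proteins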
# Ras and Rab interactor 1/Tyrosine-protein kinase ABL1, sequence (P00519 whole entry): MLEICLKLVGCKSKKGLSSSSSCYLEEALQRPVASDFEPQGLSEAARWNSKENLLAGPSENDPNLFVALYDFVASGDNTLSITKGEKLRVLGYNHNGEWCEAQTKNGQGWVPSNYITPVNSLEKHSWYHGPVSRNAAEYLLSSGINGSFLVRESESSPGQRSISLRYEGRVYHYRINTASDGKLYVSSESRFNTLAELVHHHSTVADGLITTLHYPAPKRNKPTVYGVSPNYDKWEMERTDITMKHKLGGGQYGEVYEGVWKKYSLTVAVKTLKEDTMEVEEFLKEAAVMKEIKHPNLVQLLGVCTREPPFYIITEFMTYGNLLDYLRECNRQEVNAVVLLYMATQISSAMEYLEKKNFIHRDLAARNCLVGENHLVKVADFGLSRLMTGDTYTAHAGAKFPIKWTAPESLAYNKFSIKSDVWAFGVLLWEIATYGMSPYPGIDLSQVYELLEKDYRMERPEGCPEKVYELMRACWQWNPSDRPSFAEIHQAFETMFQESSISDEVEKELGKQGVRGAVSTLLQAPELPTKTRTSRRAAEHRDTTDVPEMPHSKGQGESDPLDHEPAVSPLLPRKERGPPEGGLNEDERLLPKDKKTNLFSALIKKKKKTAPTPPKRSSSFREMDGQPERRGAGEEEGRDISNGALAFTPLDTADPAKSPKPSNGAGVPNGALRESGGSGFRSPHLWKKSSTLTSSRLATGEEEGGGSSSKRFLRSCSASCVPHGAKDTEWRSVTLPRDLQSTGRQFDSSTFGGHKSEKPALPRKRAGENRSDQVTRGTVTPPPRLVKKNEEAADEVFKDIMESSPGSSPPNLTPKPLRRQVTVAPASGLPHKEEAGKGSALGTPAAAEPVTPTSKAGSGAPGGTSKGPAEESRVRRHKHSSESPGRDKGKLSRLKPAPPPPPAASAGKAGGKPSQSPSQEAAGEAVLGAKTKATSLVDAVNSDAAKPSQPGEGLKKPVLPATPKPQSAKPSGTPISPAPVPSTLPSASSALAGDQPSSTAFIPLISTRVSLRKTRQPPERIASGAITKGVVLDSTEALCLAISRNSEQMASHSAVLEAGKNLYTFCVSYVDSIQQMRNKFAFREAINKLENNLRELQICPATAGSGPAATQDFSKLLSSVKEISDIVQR
# Ras and Rab interactor 1/Tyrosine-protein kinase ABL1, sequence (Q13671 whole entry): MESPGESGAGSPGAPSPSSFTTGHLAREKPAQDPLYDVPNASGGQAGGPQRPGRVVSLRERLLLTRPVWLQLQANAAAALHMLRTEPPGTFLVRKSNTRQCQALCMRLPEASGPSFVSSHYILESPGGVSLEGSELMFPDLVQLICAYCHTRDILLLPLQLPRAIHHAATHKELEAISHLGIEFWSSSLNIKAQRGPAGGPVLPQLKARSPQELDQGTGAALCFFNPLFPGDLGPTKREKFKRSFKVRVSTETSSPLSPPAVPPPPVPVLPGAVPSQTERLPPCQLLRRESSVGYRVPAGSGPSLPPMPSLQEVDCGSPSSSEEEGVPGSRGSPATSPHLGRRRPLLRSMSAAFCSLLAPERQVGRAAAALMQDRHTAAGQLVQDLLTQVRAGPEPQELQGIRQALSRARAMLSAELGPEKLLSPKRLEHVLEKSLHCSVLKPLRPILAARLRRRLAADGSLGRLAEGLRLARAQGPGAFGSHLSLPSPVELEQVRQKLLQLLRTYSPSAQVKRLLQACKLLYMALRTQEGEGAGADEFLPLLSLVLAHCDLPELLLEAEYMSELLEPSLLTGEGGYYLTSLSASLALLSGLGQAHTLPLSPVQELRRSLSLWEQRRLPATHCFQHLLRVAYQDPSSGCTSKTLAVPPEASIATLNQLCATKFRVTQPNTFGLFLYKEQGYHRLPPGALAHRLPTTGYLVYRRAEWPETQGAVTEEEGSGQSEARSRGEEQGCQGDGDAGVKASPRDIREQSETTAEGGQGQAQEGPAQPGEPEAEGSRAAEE
# [17] = blockers of bursicon-stimulated LGR2 cAMP reporter – cell-based, HEK293, CRE-luciferase reporter, cherry pick, set 2, dose response (AID 743343); format: functional;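 note: transfected cells were stimulated with diluted bursicon conditioned medium after compound addition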
# [18] = A549 cell cytotoxicity, dose response, cytotoxicity control, plate reader, cherry-pick, antagonist series (AID 743412); format: functional, cell-based
# [19] = blockade of melanocortin 4 receptor signaling – cell-based, plate reader, cherry pick, counter-screen for LGR2 antagonist project, dose response (AID 743444); format: functional;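 note: transfected HEK 293 cells stimulated with alpha-MSH peptide; potency of inhibitors of the alpha-MSH evoked signal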
# [20] = toxicity toward HepG2 liver cells – cell-based, plate reader, cherry-pick, antagonist series, cytotoxicity control, dose response (AID 743416); format: functional
smiles,measurement,setting,value
COc1ccc(Nc2ccnc3ccccc23)cc1,IC50,[1],23.4 µM (inactive)
same,AC50,[2],28.3 µM (active)
same,IC50,[3],30.1 µM (inactive)
O=C(O)c1cc(O)c2c(c1)[C@@H]([C@H]1c3cc(C(=O)O)cc(O)c3C(=O)c3c(O[C@@H]4O[C@H](CO)[C@@H](O)[C@H](O)[C@H]4O)cccc31)c1cccc(OC3O[C@H](CO)[C@@H](O)[C@H](O)[C@H]3O)c1C2=O (stereo partly drawn),IC50,[4],1.06 µM (active)
same,IC50,[5],30.6 µM (inactive)
same,IC50,"Troponin, cardiac muscle",1.82 µM (active)
same,AC50,[6],> 100 µM (inactive)
same,IC50,[7],12 µM (active)
O=C(COc1cccc2ccccc12)Nc1nc2ccccc2[nH]1,IC50,cells,6.2 µM (active)
same,AC50,[8],8.06 µM (active)
N#CN=C(Nc1cccc(F)c1)SCc1ccccc1F,IC50,[9],6.82 µM (active)
same,IC50,[10],1.67 µM (active)
same,EC50,[11],> 53 µM (inactive)
Nc1nc(=O)[nH]cc1F [FLUCYTOSINE],EC50,[12],> 160 µM (inactive)
same,EC50,[13],> 160 µM (inactive)
same,EC50,[14],0.252 µM (active)
same,EC50,[15],> 180 µM (inactive)
CSc1c(C#N)sc(=S)n1-c1ccc(C)cc1,IC50,[9],11.9 µM (active)
same,IC50,[10],> 20 µM (inactive)
same,EC50,[11],> 53 µM (inactive)
CCCn1nc(C(=O)N(C)CC(=O)Nc2ccc(OCC)c(OCC)c2)c2ccccc2c1=O,IC50,[16],10.5 µM (inactive)
O=c1cc(-c2cc3ccccc3o2)c2cc(O)ccc2o1,IC50,[1],19.7 µM (active)
same,IC50,[3],24.1 µM (inactive)
Cc1c(C(=O)NCCN2CCOCC2)oc2ccc(Br)cc12,IC50,[16],1.02 µM (active)
COc1ccc(C(=O)Nc2ccc3ncccc3c2)cc1,AC50,[17],5.45 µM (active)
same,AC50,[18],37.8 µM (active)
same,AC50,[19],7.29 µM (active)
same,AC50,[20],47 µM (active)
Oc1nc2ccccc2n1C1CCN(C(c2ccnc3ccccc23)c2nnnn2-c2ccc3c(c2)OCCO3)CC1 (stereo not drawn),IC50,[16],15.3 µM (inactive)
COCCn1c(=O)[nH]c(=O)c2cc(C(=O)c3cc(Cl)ccc3O)cnc21,EC50,[12],> 160 µM (inactive)
same,EC50,[13],> 160 µM (inactive)
same,EC50,[14],1.12 µM (active)
same,EC50,[15],> 180 µM (inactive)
